# According to ChEMBL document CHEMBL6109147, “Discovery of Potent STING Inhibitors Bearing a Difluorobenzodioxol Structural Motif as Potent Anti-Inflammatory Agents” (J Med Chem, 2025):
# Calls of active or inactive are those of the source. The calls are words filed in the database; no cut-off is given here.
# Tests used:
# [1] = biological target: Stimulator of interferon genes protein (Homo sapiens) (UniProt Q86WV6); test: Inhibition of human wild type STING (R232) expressed in human 293-Dual hSTING-R232 cells assessed as inhibition of secreted luciferase reporter of interferon stimulated gene (ISG) measured after 24 hrs incubation; assay type: cell-based
# Mus musculus [2] = test: Anti-inflammatory activity against MSA-2 induced C57BL/6 mouse inflammation model assessed as inhibition of MSA-2 induced IL-6 level in plasma at 10 mg/kg, ip pre-treated for 1 hr followed by stimulated with MSA-2 for 4 hrs by ELISA; assay type: functional, organism-based; conditions: time 5.0 hrs
# [3] = biological target: T1, Stimulator of interferon genes protein (Mus musculus) (UniProt Q3TBT3); test: Inhibition of STING downstream signalling in mouse RAW264.7 cells assessed as inhibition of […] induced Cxcl-10 mRNA level pre-treated for 1 hr followed by stimulated with […] measured after 4 hrs by real-time PCR analysis; assay type: cell-based; conditions: dose 0.3-3 µM, time 5.0 hrs
# T1 sequence (whole entry): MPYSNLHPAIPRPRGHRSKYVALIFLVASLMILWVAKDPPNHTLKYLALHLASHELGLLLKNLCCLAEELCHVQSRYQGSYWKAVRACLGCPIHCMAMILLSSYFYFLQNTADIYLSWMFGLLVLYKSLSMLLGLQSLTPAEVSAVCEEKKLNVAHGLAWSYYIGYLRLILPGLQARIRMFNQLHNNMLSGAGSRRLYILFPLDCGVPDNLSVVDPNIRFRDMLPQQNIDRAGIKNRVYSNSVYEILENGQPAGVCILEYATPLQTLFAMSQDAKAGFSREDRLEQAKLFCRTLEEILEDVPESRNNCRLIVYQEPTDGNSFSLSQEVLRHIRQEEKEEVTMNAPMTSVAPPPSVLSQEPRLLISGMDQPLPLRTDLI
# [4] = biological target: Stimulator of interferon genes protein (Homo sapiens) (UniProt Q86WV6); test: Inhibition of STING downstream signalling in human THP1-Dual cells assessed as inhibition of MSA-2 induced IFN-beta mRNA expression at 0.3 to 3 uM pre-treated for 1 hr followed by stimulated with MSA-2 measured after 4 hrs by real-time PCR analysis; assay type: cell-based; conditions: dose 0.3-3 µM, time 5.0 hrs
# Mus musculus [5] = test: Anti-inflammatory activity in TREX1 D18N mouse model assessed as reduction in Ccl5 mRNA expression in heart at 10 mg/kg, ip measured after 2 weeks; assay type: functional, organism-based
# [6] = biological target: Stimulator of interferon genes protein (Homo sapiens) (UniProt Q86WV6); test: Inhibition of STING in human THP1-Dual cells assessed as inhibition of HT-DNA induced cGAS activation measured after 1 hr incubation followed by stimulated with HT-DNA by Western blotting analysis; assay type: cell-based
# Mus musculus [7] = test: Prevention of body weight loss in Cisplatin induced C57BL/6 mouse kidney inflammation model at 5 mg/kg, ip treated for 3 days; assay type: functional, organism-based; conditions: time 3.0 day
# [8] = biological target: T1, Stimulator of interferon genes protein (Mus musculus); test: Inhibition of STING downstream signalling in mouse RAW264.7 cells assessed as inhibition of […] induced IL-6 secretion level at 0.3 to 3 uM pre-treated for 1 hr followed by stimulated with […] measured after 24 hrs by ELISA; assay type: cell-based; conditions: dose 0.3-3 µM, time 25.0 hrs
# [9] = system: Stimulator of interferon genes protein (Homo sapiens), Q86WV6 [UNDEFINED MUTATION]; test: Inhibition of human STING expressed in 293T-Dual-hSTING-293Q cells assessed as reduction in cGAMP-induced secreted luciferase reporter of interferon stimulated gene (ISG) measured after 24 hrs incubation; assay type: cell-based
# Mus musculus [10] = test: Anti-inflammatory activity against Cisplatin induced C57BL/6 mouse kidney inflammation model assessed as prevention of Cisplatin induced interstitial vacuolation at 5 mg/kg, ip treated for 3 days; assay type: functional, organism-based; conditions: time 3.0 day
# [11] = AUC (0 to infinity) in Sprague-Dawley rat at 1 mg/kg, iv; assay type: ADME, organism-based; conditions: in vivo
# Mus musculus [12] = test: Anti-inflammatory activity against Cisplatin induced C57BL/6 STING-KO mouse kidney inflammation model assessed as prevention of Cisplatin induced interstitial vacuolation at 5 mg/kg, ip treated for 3 days; assay type: functional, organism-based; conditions: time 3.0 day
# [13] = Metabolic stability in rat liver microsomes assessed as half life; assay type: ADME, Microsome
# [14] = Half life in Sprague-Dawley rat at 3 mg/kg, po; assay type: ADME, organism-based; conditions: in vivo
# Mus musculus [15] = test: Anti-inflammatory activity in TREX1 D18N mouse model assessed as reduction in Isg15 mRNA expression in heart at 10 mg/kg, ip measured after 2 weeks; assay type: functional, organism-based
# Mus musculus [16] = test: Anti-inflammatory activity in TREX1 D18N mouse model assessed as reduction in Isg56 mRNA expression in kidney at 10 mg/kg, ip measured after 2 weeks; assay type: functional, organism-based
# [17] = AUC (0 to infinity) in Sprague-Dawley rat at 3 mg/kg, po; assay type: ADME, organism-based; conditions: in vivo
# Mus musculus [18] = test: Anti-inflammatory activity in TREX1 D18N mouse model assessed as reduction in IL6 mRNA expression in kidney at 10 mg/kg, ip measured after 2 weeks; assay type: functional, organism-based
# Mus musculus [19] = test: Anti-inflammatory activity in TREX1 D18N mouse model assessed as reduction in Ccl5 mRNA expression in kidney at 10 mg/kg, ip measured after 2 weeks; assay type: functional, organism-based
# Mus musculus [20] = test: Anti-inflammatory activity in TREX1 D18N mouse model assessed as reduction in Isg15 mRNA expression in kidney at 10 mg/kg, ip measured after 2 weeks; assay type: functional, organism-based
# [21] = biological target: Stimulator of interferon genes protein (Homo sapiens) (UniProt Q86WV6); test: Inhibition of STING downstream signalling in human THP1-Dual cells assessed as inhibition of HT-DNA induced TNF-alpha mRNA expression at 0.3 to 3 uM pre-treated for 1 hr followed by stimulated with HT-DNA measured after 4 hrs by real-time PCR analysis; assay type: cell-based; conditions: dose 0.3-3 µM, time 5.0 hrs
# [22] = biological target: T1, Stimulator of interferon genes protein (Mus musculus); test: Inhibition of STING downstream signalling in mouse RAW264.7 cells assessed as inhibition of DMAAA induced TNFalpha secretion level at 0.3 to 3 uM pre-treated for 1 hr followed by stimulated with DMAAA measured after 24 hrs by ELISA; assay type: cell-based; conditions: dose 0.3-3 µM, time 25.0 hrs
# [23] = biological target: T1, Stimulator of interferon genes protein (Mus musculus); test: Inhibition of STING downstream signalling in mouse BMDM cells assessed as inhibition of MSA-2 induced Isg56 mRNA level pre-treated for 1 hr followed by stimulated with MSA-2 measured after 4 hrs by real-time PCR analysis; assay type: cell-based; conditions: dose 0.3-3 µM, time 5.0 hrs
# Mus musculus [24] = test: Anti-inflammatory activity in TREX1 D18N mouse model assessed as reduction in Cxcl10 mRNA expression in heart at 10 mg/kg, ip measured after 2 weeks; assay type: functional, organism-based
# Mus musculus [25] = test: Effect on Isg56 expression in Cisplatin induced C57BL/6 STING-KO mouse kidney inflammation model at 5 mg/kg, ip treated for 3 days by real-time PCR analysis; assay type: functional, organism-based; conditions: time 3.0 day
# [26] = biological target: T1, Stimulator of interferon genes protein (Mus musculus); test: Inhibition of STING downstream signalling in mouse RAW264.7 cells assessed as inhibition of DMAAA induced Isg15 mRNA level pre-treated for 1 hr followed by stimulated with DMAAA measured after 4 hrs by real-time PCR analysis; assay type: cell-based; conditions: dose 0.3-3 µM, time 5.0 hrs
# [27] = system: Stimulator of interferon genes protein (Homo sapiens), Q86WV6 [UNDEFINED MUTATION]; test: Inhibition of human STING expressed in 293T-Dual-hSTING-AQ cells assessed as reduction in cGAMP-induced secreted luciferase reporter of interferon stimulated gene (ISG) measured after 24 hrs incubation; assay type: cell-based
# Mus musculus [28] = test: Anti-inflammatory activity against MSA-2 induced C57BL/6 mouse inflammation model assessed as inhibition of MSA-2 induced IL-6 level in kidney at 10 mg/kg, ip pre-treated for 1 hr followed by stimulated with MSA-2 for 4 hrs by ELISA; assay type: functional, organism-based; conditions: time 5.0 hrs
# Chain of Stimulator of interferon genes protein (Homo sapiens) (Q86WV6 whole entry): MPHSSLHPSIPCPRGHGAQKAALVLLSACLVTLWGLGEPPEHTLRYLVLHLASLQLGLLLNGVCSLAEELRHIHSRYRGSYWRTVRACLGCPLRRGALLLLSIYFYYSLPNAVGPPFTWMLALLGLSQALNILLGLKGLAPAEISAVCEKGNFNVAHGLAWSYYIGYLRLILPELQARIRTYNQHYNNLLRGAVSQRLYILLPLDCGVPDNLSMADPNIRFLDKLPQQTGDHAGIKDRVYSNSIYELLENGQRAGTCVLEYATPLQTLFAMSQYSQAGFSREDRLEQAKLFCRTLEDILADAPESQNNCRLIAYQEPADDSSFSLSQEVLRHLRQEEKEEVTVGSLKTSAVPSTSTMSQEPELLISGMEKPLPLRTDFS
# Chain of Stimulator of interferon genes protein (Homo sapiens), Q86WV6 [UNDEFINED MUTATION] (Q86WV6 whole entry, looked up, stated change not applied): as the sequence (Q86WV6 whole entry) above
compound,measurement,setting,value
N#CC/C=C/c1ccc2[nH]cc(NC(=O)Nc3ccc4c(c3)OC(F)(F)O4)c2c1,inhibition,[1],Active
same,inhibition,Mus musculus [2],Active
same,inhibition,[3],Dose-dependent-effect
same,inhibition,[4],Active
same,Activity,Mus musculus [5],Active
same,inhibition,[6],Dose-dependent-effect
same,Activity,Mus musculus [7],inactive
same,inhibition,[8],Active
same,inhibition,[9],Active
same,inhibition,Mus musculus [10],inactive
same,AUC(0-inf),[11],196 ng·h/mL
same,Activity,Mus musculus [12],inactive
same,half-life,[13],0.642 h
same,half-life,[14],3.27 h
same,Activity,Mus musculus [15],Active
same,Activity,Mus musculus [16],Active
same,AUC(0-inf),[17],74.8 ng·h/mL
same,Activity,Mus musculus [18],Active
same,Activity,Mus musculus [19],Active
same,Activity,Mus musculus [20],Active
same,inhibition,[21],Active
same,inhibition,[22],Active
same,inhibition,[23],Dose-dependent-effect
same,Activity,Mus musculus [24],Active
same,Activity,Mus musculus [25],inactive
same,inhibition,[26],Dose-dependent-effect
same,inhibition,[27],Active
same,inhibition,Mus musculus [28],Active
